In PMC11604048, “Constrained TACC3 peptidomimetics for a non-canonical protein–protein interface elucidate allosteric communication in Aurora-A kinase” (Chemical Science, 2024):
Read-outs that look alike come from different tables or passages of the source. Blank lines part the entries; values can stand above or below the compound they belong to. *1 amine or outer side, *2 acyl side, *3 side chain or, on linkers, in order; H or OH if unused. Where a SMILES comes first, the peptide text is derived from it. Bridges are numbered along the chain shown (N, C = ends). [ ]: non-standard residue; d: D form. The star is where a group is joined. 5FAM = O=C1OC2(c3ccc(O)cc3Oc3cc(O)ccc32)c2ccc(C(=O)*)cc21; Biphenyl(4,4'-CH2)2 = c1cc(-c2ccc(C[*:2])cc2)ccc1C[*:1]; Pro(trans-4-F) = O=C(O)[C@@H]1C[C@@H](F)CN1; Phe(4-Br) = N[C@@H](Cc1ccc(Br)cc1)C(=O)O; Phe(4-I) = N[C@@H](Cc1ccc(I)cc1)C(=O)O; Nle = CCCC[C@H](N)C(=O)O; Ahx = NCCCCCC(=O)O

How the values were obtained:
[1] = target: T1, Aurora-A122-403-C290A/C393A (Homo sapiens, UniProt O14965, C290A/C393A); experiment: FA direct binding assay (Aurora-A titrated into FAM-Ahx-labelled peptide); parameters: ΔG: unit not given here; conditions: for ΔG: Table S6, from direct FA titration, n = 6
T1 construct: Human Aurora-A kinase domain 122-403 wild-type or C290A/ C393A mutant; His tag (pET30TEV vector) (N, cleaved yes); made in house; host or cells: E. coli RIL, co-expressed with lambda phosphatase (Aurora-A); tracer by solid phase synthesis
T1 sequence (O14965 122-403 C290A/C393A): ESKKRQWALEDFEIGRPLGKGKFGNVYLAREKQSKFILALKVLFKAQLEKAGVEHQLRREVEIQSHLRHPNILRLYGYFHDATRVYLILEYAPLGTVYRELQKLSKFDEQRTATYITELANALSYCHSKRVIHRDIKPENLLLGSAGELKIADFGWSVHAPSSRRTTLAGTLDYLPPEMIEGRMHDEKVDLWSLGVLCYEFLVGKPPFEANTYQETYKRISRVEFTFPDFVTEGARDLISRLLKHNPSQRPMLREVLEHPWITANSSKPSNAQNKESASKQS
Procedure: Fluorescence anisotropy (FA) assays – General information.
All assays were performed using 384-well plates(Greiner Bio-one, UK). […]
produced as described previously.11 All samples were prepared in 25 mM Tris,150 mM NaCl, 5 mM MgCl2, […]
(PerkinElmer; Waltham, MA, USA).The parameters were set as follows: Excitation wavelength = 480 nm […]
Measured data were processed and analysed as previously described.12 Specifically, the perpendicular intensity (P) and parallel intensity (S) were subtracted by the control values and used for calculations of intensity and anisotropy using the following Equations 1, 2, 3, 4, and 5:
I= (2PG) + S Eq. (SI − 5)
r = (S − PG) Eq. (SI − 6)
L = r − r௠௜௡ Eq. (SI − 7)
y = (k + x + [FL]) − ඥ(k + x + [FL]2 − 4 ∗ x ∗ [FL]) Eq. (SI − 8)
y = r + r௠௜௡ − r௠௔௫ Eq. (SI − 9)
Where I = total intensity; P = perpendicular intensity; S = parallel intensity; G = instrument factor; r = anisotropy; Lb = ligand bound fraction; λ = change in intensity between bound and unbound states which […]
FA direct binding assays. […]
starting from 700 μM, diluted over 24 points in a 1/2 regime using the FAM-Ahx-labeled peptides at a final fixed concentration of 50 nM per well.

[2] = target: T1, Aurora-A122-403-C290A/C393A; experiment: Isothermal titration calorimetry (ITC); type: binding; conditions: single titration
Procedure: Isothermal titration calorimetry (ITC). ITC experiments were carried out using a MicroCal PEAQ-ITC system (Malvern Panalytical) at 25 °C. A stock solution of Aurora-A 122-403-290A/C393A was dialyzed into ITC buffer overnight (25 mM Tris buffer, pH= 7.5; 150 mM NaCl; 5 mM MgCl2; 5 % v/v glycerol), and the same buffer was employed to resuspend a solid portion of the testing peptides. For each experiment, initially, the cell was filled with 275 µl of Aurora-A122-403-290A/C393A (46 μM) and the syringe was loaded with the corresponding peptide at 1.25 mM concentration. An initial injection of 0.5 μL was then followed by 13 injections of 3 μL, every 150 s, with a constant syringe rotation speed of 750 rpm throughout. The signal for the enthalpy of dilution of each peptide into buffer was independently measured in a control titration experiment and then subtracted from the experimental binding traces. The Kd, ΔG°, ΔH° and -TΔS° values were determined via the MicroCal PEAQ-ITC analysis software (Malvern Paranalytical) using a single-site binding model. […]

[3] = target: T1, Aurora-A122-403-C290A/C393A; experiment: Competition FA assay against FAM-Ahx-TACC3 522-536 tracer; type: binding
[4] = Table S6, direct FA titration, 50 nM fluorescein-labelled peptide, Tris buffer pH 7.5, mean ± SD, n = 6, read-out: Kd
[5] = 50 nM fluorescein-labelled peptide, mean ± SD
[6] = direct FA titration of Aurora-A122-403-C290A/C393A into 50 nM FAM-Ahx-labelled peptide, 25 mM Tris, 150 mM NaCl, 5 mM MgCl2, pH 7.5, 25 °C, mean ± SD, n = 3, read-out: Kd

Kd [1, 4]: 1.48 ± 0.16 µM
ΔG [1, 5]: -33.3 ± 0.3
Compound: CC(C)C[C@H](NC(=O)[C@@H](NC(=O)[C@H](CCC(=O)O)NC(=O)[C@H](C)NC(=O)[C@@H]1C[C@@H](F)CN1C(=O)[C@H](CC(=O)O)NC(=O)[C@@H]1CSCc2ccc(cc2)-c2ccc(cc2)CSC[C@H](NC(=O)[C@H](CCC(=O)O)NC(=O)[C@H](CC(C)C)NC(=O)CCCCCNC(=O)c2ccc3c(c2)C(=O)OC32c3ccc(O)cc3Oc3cc(O)ccc32)C(=O)N[C@@H](CCCCN)C(=O)N[C@@H](CCC(=O)O)C(=O)N[C@@H](CCC(=O)O)C(=O)N[C@@H](CO)C(=O)N[C@@H](Cc2ccc(Br)cc2)C(=O)N1)C(C)C)C(N)=O [FAM-Ahx-TACC3 518-532-L/R-Bph-BrF/fP] ({5FAM-Ahx}-LECKEES[Phe(4-Br)]CD[Pro(trans-4-F)]AEVL-NH2; linker 3-9 via Biphenyl(4,4'-CH2)2)

Kd [1, 4]: 0.62 ± 0.15 µM
ΔG [1, 5]: -35.5 ± 0.6
Compound: CC(C)C[C@H](NC(=O)[C@@H](NC(=O)[C@@H]1CSCc2ccc(cc2)-c2ccc(cc2)CSC[C@H](NC(=O)[C@H](CCC(=O)O)NC(=O)[C@H](CCC(=O)O)NC(=O)[C@H](CCCCN)NC(=O)[C@H](CC(C)C)NC(=O)[C@H](CCC(=O)O)NC(=O)[C@H](CC(C)C)NC(=O)CCCCCNC(=O)c2ccc3c(c2)C(=O)OC32c3ccc(O)cc3Oc3cc(O)ccc32)C(=O)N[C@@H](Cc2ccc(Br)cc2)C(=O)N[C@@H](CCCNC(=N)N)C(=O)N[C@@H](CC(=O)O)C(=O)N2C[C@H](F)C[C@H]2C(=O)N[C@@H](C)C(=O)N1)C(C)C)C(N)=O [FAM-Ahx-TACC3 518-532-S/E-Bph-BrF/fP] ({5FAM-Ahx}-LELKEEC[Phe(4-Br)]RD[Pro(trans-4-F)]ACVL-NH2; linker 7-13 via Biphenyl(4,4'-CH2)2)

Kd [1, 4]: 0.9 ± 0.2 µM
ΔG [1, 5]: -34.6 ± 0.6
Kd [1, 6]: 0.8 ± 0.2 µM
Compound: CC(C)C[C@H](NC(=O)[C@@H](NC(=O)[C@@H]1CSCc2ccc(cc2)-c2ccc(cc2)CSC[C@H](NC(=O)[C@H](CCC(=O)O)NC(=O)[C@H](CCC(=O)O)NC(=O)[C@H](CCCCN)NC(=O)[C@H](CC(C)C)NC(=O)[C@H](CCC(=O)O)NC(=O)[C@H](CC(C)C)NC(=O)CCCCCNC(=O)c2ccc3c(c2)C(=O)OC32c3ccc(O)cc3Oc3cc(O)ccc32)C(=O)N[C@@H](Cc2ccc(I)cc2)C(=O)N[C@@H](CCCNC(=N)N)C(=O)N[C@@H](CC(=O)O)C(=O)N2C[C@H](F)C[C@H]2C(=O)N[C@@H](C)C(=O)N1)C(C)C)C(N)=O [FAM-Ahx-TACC3 518-532-S/E-Bph-IF/fP] ({5FAM-Ahx}-LELKEEC[Phe(4-I)]RD[Pro(trans-4-F)]ACVL-NH2; linker 7-13 via Biphenyl(4,4'-CH2)2)

Kd [1, 6]: 7.1 ± 0.8 µM
Compound: CC(C)C[C@H](NC(=O)[C@@H](NC(=O)[C@H](CCC(=O)O)NC(=O)[C@H](C)NC(=O)[C@@H]1CCCN1C(=O)[C@H](CC(=O)O)NC(=O)[C@H](CCCNC(=N)N)NC(=O)[C@H](Cc1ccccc1)NC(=O)[C@H](CO)NC(=O)[C@H](CCC(=O)O)NC(=O)[C@H](CCC(=O)O)NC(=O)CCCCCNC(=O)c1ccc2c(c1)C(=O)OC21c2ccc(O)cc2Oc2cc(O)ccc21)C(C)C)C(N)=O [FAM-Ahx-TACC3 522-532] ({5FAM-Ahx}-EESFRDPAEVL-NH2)

Compound: CC(C)C[C@H](NC(=O)[C@@H](NC(=O)[C@H](CCC(=O)O)NC(=O)[C@H](C)NC(=O)[C@@H]1CCCN1C(=O)[C@H](CC(=O)O)NC(=O)[C@H](CCCNC(=N)N)NC(=O)[C@H](Cc1ccccc1)NC(=O)[C@H](CO)NC(=O)[C@H](CCC(=O)O)NC(=O)[C@H](CCC(=O)O)NC(=O)CCCCCNC(=O)c1ccc2c(c1)C(=O)OC21c2ccc(O)cc2Oc2cc(O)ccc21)C(C)C)C(=O)NCC(=O)N[C@H](C(=O)NCC(=O)N[C@@H](C)C(N)=O)[C@@H](C)O [FAM-Ahx-TACC3 522-536]
Kd ([1]; SD): 10.5 ± 1.13 µM

Kd [1, 6]: 4.5 ± 0.2 µM
Compound: CC(C)C[C@H](NC(=O)[C@H](Cc1ccc(O)cc1)NC(=O)[C@H](CC(=O)O)NC(=O)[C@@H](NC(=O)[C@H](CCC(=O)O)NC(=O)[C@H](C)NC(=O)CNC(=O)[C@@H](NC(=O)CNC(=O)[C@H](CC(C)C)NC(=O)[C@@H](NC(=O)[C@H](CCC(=O)O)NC(=O)[C@H](C)NC(=O)[C@@H]1CCCN1C(=O)[C@H](CC(=O)O)NC(=O)[C@H](CCCNC(=N)N)NC(=O)[C@H](Cc1ccccc1)NC(=O)[C@H](CO)NC(=O)[C@H](CCC(=O)O)NC(=O)[C@H](CCC(=O)O)NC(=O)CCCCCNC(=O)c1ccc2c(c1)C(=O)OC21c2ccc(O)cc2Oc2cc(O)ccc21)C(C)C)[C@@H](C)O)C(C)C)C(=O)N[C@@H](CCC(=O)O)C(N)=O [FAM-Ahx-TACC3 522-542] ({5FAM-Ahx}-EESFRDPAEVLGTGAEVDYLE-NH2)

Kd ([2]; ITC 25 °C, Aurora-A 46 µM in cell, Ac-capped peptide 1.25 mM, 25 mM Tris, 150 mM NaCl, 5 mM MgCl2, 5% v/v glycerol, pH 7.5, N restrained fit (N = 1)): 57.4 µM
Kd ([2]; ITC as E13, N unrestrained fit): 58.6 µM
Compound: CC(=O)N[C@@H](CCC(=O)O)C(=O)N[C@@H](CCC(=O)O)C(=O)N[C@@H](CO)C(=O)N[C@@H](Cc1ccccc1)C(=O)N[C@@H](CCCNC(=N)N)C(=O)N[C@@H](CC(=O)O)C(=O)N1CCC[C@H]1C(=O)N[C@@H](C)C(=O)N[C@@H](CCC(=O)O)C(=O)N[C@H](C(=O)N[C@@H](CC(C)C)C(=O)NCC(=O)N[C@H](C(=O)NCC(=O)N[C@@H](C)C(N)=O)[C@@H](C)O)C(C)C [TACC3 522-536]

IC50 ([3]; read-out: IC50): ≥ 500 µM
Compound: CC(=O)N[C@@H](CCC(=O)O)C(=O)N[C@@H](CCC(=O)O)C(=O)N[C@@H](CO)C(=O)NC(C)(Cc1ccccc1)C(=O)N[C@@H](CCCNC(=N)N)C(=O)N[C@@H](CC(=O)O)C(=O)N1CCC[C@H]1C(=O)N[C@@H](C)C(=O)N[C@@H](CCC(=O)O)C(=O)N[C@H](C(=O)N[C@@H](CC(C)C)C(=O)NCC(=O)N[C@H](C(=O)NCC(=O)N[C@@H](C)C(N)=O)[C@@H](C)O)C(C)C (stereo partly drawn) [TACC3 522-536_(α-Me) -525F]

IC50 ([3]; read-out: IC50): ≥ 300 µM
Compound: COc1ccc(C[C@H](NC(=O)[C@H](CO)NC(=O)[C@H](CCC(=O)O)NC(=O)[C@H](CCC(=O)O)NC(C)=O)C(=O)N[C@@H](CCCNC(=N)N)C(=O)N[C@@H](CC(=O)O)C(=O)N2CCC[C@H]2C(=O)N[C@@H](C)C(=O)N[C@@H](CCC(=O)O)C(=O)N[C@H](C(=O)N[C@@H](CC(C)C)C(=O)NCC(=O)N[C@H](C(=O)NCC(=O)N[C@@H](C)C(N)=O)[C@@H](C)O)C(C)C)cc1 [TACC3 522-536_F525Y(OMe)] (Ac-EESY(Me)RDPAEVLGTGA-NH2)

IC50 ([3]; read-out: IC50): ≥ 300 µM
Compound: CCCC[C@H](NC(=O)[C@H](CCC(=O)O)NC(=O)[C@H](C)NC(=O)[C@@H]1CCCN1C(=O)[C@H](CC(=O)O)NC(=O)[C@H](CCCNC(=N)N)NC(=O)[C@H](Cc1ccccc1)NC(=O)[C@H](CO)NC(=O)[C@H](CCC(=O)O)NC(=O)[C@H](CCC(=O)O)NC(C)=O)C(=O)N[C@@H](CC(C)C)C(=O)NCC(=O)N[C@H](C(=O)NCC(=O)N[C@@H](C)C(N)=O)[C@@H](C)O [TACC3 522-536_V531nL] (Ac-EESFRDPAE[Nle]LGTGA-NH2)

IC50 ([3]; read-out: IC50): ≥ 300 µM
Compound: Ac-EESFRDPAEILGTGA-NH2 [TACC3 522-536_V531I]

IC50 ([3]; read-out: IC50): ≥ 500 µM
Compound: Ac-EESYRDPAEVLGTGA-NH2 [TACC3 522-536_F525Y]

IC50 ([3]; as E1, oxidised (disulfide) species made in situ from 10 mM stock in aqueous DMSO 33% v/v, air, overnight, WT control (+DMSO) given the same DMSO incubation, mean ± SD, n = 3, read-out: IC50 (ox)): ≥ 200 µM
Compound: Ac-LECKEESFCDPAEVL-NH2 (disulfide 3-9 (inferred)) [TACC3 518-532 L520C/R526C (ox), disulfide form of the Cys variant]
